Where two headings read alike, the source gives them in different places.
Tests used:
[1] = MALDI mass spectrometry imaging of mouse kidney sections after oral co-administration (Example 1)
Method: (§1) The target tissue, hereinafter “tissue 1”, comprises the medulla and renal calices.
(§2) The non-target adjacent tissue, hereinafter “tissue 2”, is also considered and comprises the renal cortex region.
(§3) Wild-type mice of Swiss strain weighing 25-40 g from Charles River Laboratories were used. […] Mice were sacrificed by CO2 asphyxiation. Kidneys were then removed and plunged into 100% isopentane solution cooled by liquid nitrogen for rapid freezing. Finally, kidneys were stored at −80° C.
(§4) Kidneys were sectioned into 10 μm thick layers (sagittal sections) using a Microm HM560 (Thermo Scientific, France) cooled at −21° C. The sections were then deposited on conductive ITO (indium tin oxide) slides (Delta Technology, USA). Finally, the sections were kept in the cryostat chamber 30 min for cryodrying and then placed in a desiccator for 30 minutes.
(§5) A CHCA matrix was used for the analysis of all kidney tissue sections. This matrix was prepared at a concentration of 10 mg/ml in acetonitrile/water+0.1% TFA (6:1, v/v). The matrix solution was deposited using the SunCollect spraying system (SunChrom, Germany) following optimized protocol.
(§6) The images were obtained using an AutoFlex Speed MALDI-TOF mass spectrometer (Bruker Daltonics, Bremen, Germany) equipped with a Smartbeam II laser. The data was generated in positive reflectron mode. A total of 500 spectra were obtained for each spot with a 1000 Hz laser frequency and a 200×200 μm^2 image spatial resolution on a mass range of 100 to 1000 Da. The FlexImaging version 4.0 software was used to reconstruct the images and Quantinetix 1.6 software (ImaBiotech, Loos, France) permitted the extraction of spectral intensities of ions corresponding to each studied molecule.
(§7) The imaging data treatment software Quantinetix is used to extract relative intensities of each ion of interest and control compound for each position (or voxel) within each drawn region.
(§8) The next step is to normalize the whole dataset in order to compare them. The highest intensity related to each ion is used to normalize the intensities per position. One calculates mean normalized intensities for each ion and tissue type.
(§9) By definition, one considers that positive control compound factor F1 is equal to 100% whereas negative control compound factor F1 is equal to 0%.
(§10) F2 factor calculation is performed using normalized intensity values from the previous F1 factor evaluation. Position per position, one assesses the standard deviations of intensity values of the molecule of interest and the negative control with positive control one at the level of the target tissue (T1).
(§11) By definition, the positive control compound's factor F2 is considered equal to 100% whereas the negative control compound's factor F2 is equal to 0%.

[2] = test system: receptor in the brain (GABA); test: Receptor occupancy / adsorption by MALDI imaging of rat brain sections, Diazepam dosed and Lorazepam washing (Example 2)
From the text: FIG. 7 explains the methodology of adsorption of a molecule on tissue using the example of the receptor occupancy process. In this way, it is possible to measure the occupancy efficiency of the receptor by the drug (agonist) administered to the animal compared with an antagonist molecule. In this example, all the steps of the methodology are described: the dosed tissue analysis alone, the washing step with the antagonist solution of the control tissue and the combined dosed/washing analysis of the administrated sample. No negative marker is required for this kind of experiment.
Of course, in an almost identical manner an imaging device other that MALDI can be used, such as the following: SIMS, DESI, DIOS, ICP, MALDI microscope, SNOM, SMALDI, LA-ICP, ESI (liquid extraction on tissue), MILDI, JEDI, ELDI, etc.
Wild-type rats weighing 35-40 g were used. […] Animals (dosed and control rats) were sacrificed by CO2 asphyxiation. […] Finally, brains were stored at −80° C.
Brains (control and dosed tissues) were sectioned into 10 μm thick layers (coronal section) using a Microm HM560 (Thermo Scientific, France) cooled at −20° C.
The antagonist solution was prepared from a stock solution of Lorazepam at 1 mg/ml in methanol (100%). The final concentration of the washing solution was fixed at 100 pmol/μL in methanol/water+0.1% TFA (7:3). The concentration of the antagonist is a crucial factor for receptor occupancy that improves the binding capacity of the molecule. 20 μL of the solution was spotted on the tissue section (one dosed and one control sample) and then incubated for 1 hour at 37° C. in a box inside an INCU-Line incubator (VWR, France). A dosed brain section without washing was also put in the incubator.
After incubation, tissues were washed using 2 steps to remove unbound molecules from the tissue, firstly with a solution of methanol/water+0.1% TFA (7:3) corresponding to the antagonist washing solution. Secondly, the tissue is washed using only water solution (10 mL) and then placed into a desiccator for 15 min.
A DHB matrix was used for the analysis of all brain tissue sections with or without washing with the Lorazepam solution. This matrix was prepared at a concentration of 40 mg/ml in methanol/water+0.1% TFA (1:1, v/v).
The data was generated in positive reflectron mode.
The F2 factor allows comparison of the fine localization of the agonist and the antagonist in the white matter region and gives information about their similarity or dissimilarity.

[3] = Swiss, mouse, in vivo
Method: as §1, §2, §3, §4, §5, §6, §7, §8, §9, §10, §11

[4] = mouse kidney target tissue T1, positive control 100% and negative control 0% by definition
[5] = rat brain targeted area T1, positive marker Lorazepam = 100%

Q: Which results are given for `Cc1cc2c(s1)Nc1ccccc1N=C2N1CCN(C)CC1` [Olanzapine]?
A: % Tg (global targeting coefficient) ([1]; mouse kidney target tissue T1): 40%; F1 (%) [1, 4]: 52.2%; distribution in the kidney section (MS image, FIG. 6) ([1]; mouse kidney, oral 8 mg/kg): mainly localized in the right half section of the medulla; affinity / targeting behavior for the medulla region ([1]; mouse kidney, summary of Example 1): mean affinity

Q: Which results are given for `CC[C@@H]([C@H](C)O)n1ncn(-c2ccc(N3CCN(c4ccc(OC[C@@H]5CO[C@@](Cn6cncn6)(c6ccc(F)cc6F)C5)cc4)CC3)cc2)c1=O` [Posaconazole]?
A: % Tg (global targeting coefficient) ([1]; mouse kidney target tissue T1): 100%; F1 (%) [1, 4]: 100%; F2 (%) [1, 4]: 100%; Mean normalized intensity per tissue T2 ([1]; mouse kidney, non target tissue T2 (renal cortex), oral 8 mg/kg, MALDI imaging): 0.055; Mean normalized intensity per tissue T1 ([1]; mouse kidney, target tissue T1 (medulla), oral 8 mg/kg, MALDI imaging): 0.281

Q: For `O=C1Nc2ccc(Cl)cc2C(c2ccccc2Cl)=NC1O` (centres unmarked) [Lorazepam], which “localization on the brain section (MSI)” value ([2]; control tissue section washed with the Lorazepam solution (100 pmol/μL, 1 hour at 37° C.)) is on record?
A: The value was “especially in the white matter”.

Q: What about the “F1 (%)” value [2, 5] of the same compound?
A: The value was 100%.

Q: And the “F2 (%)” value [2, 5]?
A: Its value is 100%.

Q: And the “Normalized mean intensity/Tissue T1” value ([2]; rat brain, targeted area T1 (white matter, receptor binding site), Diazepam 15 mg/kg i.v., Lorazepam washing 100 pmol/μL)?
A: The value was 0.821.

Q: And the “Normalized mean intensity/Tissue T2” value ([2]; rat brain, untargeted area T2 (rest of the brain), Diazepam 15 mg/kg i.v., Lorazepam washing 100 pmol/μL)?
A: Its value is 0.21.

Q: And the “% Tar (targeting coefficient)” value ([2]; target area (Receptor) T1, rat brain)?
A: Its value is 100%.

Q: What does the source list for `CN1C(=O)CC(C)(c2ccccc2)C1=O` (centres unmarked) [Methsuximide]?
A: % Tg (global targeting coefficient) [3]: 0%; F1 (%) [3]: 0%; F2 (%) [3]: 0%; Mean normalized intensity per tissue T1 ([3]; po, 8 mg/kg): 0.062; Mean normalized intensity per tissue T2 ([3]; po, 8 mg/kg): 0.241

From US9645138B2, “Method to evaluate the tissue targeting of a molecule of interest” (IMABIOTECH, priority 2013, dated 2017)
